Laboratory results: patent US9315522B2, “Antibacterial compounds” (JANSSEN SCIENCES IRELAND UC, priority 2012, dated 2016)
Converted amounts (≈) assume the structure as drawn. Like-named read-outs stand apart in the source and are kept apart here.

Assays:
[1] = target: T1, S. aureus ATCC 29213 FabI (Staphylococcus aureus, UniProt Q6GI75); test: Staphylococcus aureus FabI enzyme inhibition assay; type: biochemical; conditions: read-out: FabI (300.235) IC50 (converted)
T1 sequence (Q6GI75 1-256): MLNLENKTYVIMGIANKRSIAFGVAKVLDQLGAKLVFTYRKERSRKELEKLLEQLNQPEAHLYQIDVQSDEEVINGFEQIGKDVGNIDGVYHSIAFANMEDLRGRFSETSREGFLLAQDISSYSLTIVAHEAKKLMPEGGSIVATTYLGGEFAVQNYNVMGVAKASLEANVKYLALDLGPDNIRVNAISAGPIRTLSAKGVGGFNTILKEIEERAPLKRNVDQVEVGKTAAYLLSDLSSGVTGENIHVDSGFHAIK
Method in brief: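 S. aureus ATCC 29213 FabI (50 μg/ml) with 250 μM crotonoyl-CoA and 625 μM NADH in 100 mM NaADA pH 6.5, inhibitor 50–0.39 μM, 30 min at room temperature. Stopped by Tris pH 9.0 shift; NADH at 340 nm versus no-compound and no-enzyme controls; IC50 in μg/ml.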

[2] = test system: Staphylococcus aureus ATCC 29213; test: Antibacterial susceptibility testing, IC90 determination (STA); type: cell-based; conditions: resazurin; for IC90: Staphylococcus aureus, ATCC29213, Staphylococcus aureus ATCC 29213, broth microdilution, read-out: STA (361.159) IC90
Method in brief: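 S. aureus ATCC 29213 tested by broth microdilution in Mueller-Hinton broth, 5×10^5 CFU/ml, two-fold compound dilutions typically 63 to 0.49 μM, 1.25% DMSO, 16-20 h at 35° C. Growth read fluorometrically with resazurin (ex 540/em 590 nm); IC90 in μg/ml is 90% growth-inhibitory concentration.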

S. aureus = test: Antibacterial susceptibility testing, IC90 determination with 10% human serum (STA + 10% HS); type: cell-based, Staphylococcus aureus; conditions: Staphylococcus aureus, human serum at final concentration of 10%, read-out: STA + 10% HS (361.169) IC90
Method in brief: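 Broth microdilution in Mueller-Hinton broth with 10% human serum, 5×10^5 CFU/ml S. aureus, two-fold compound dilutions (typically 63 to 0.49 μM), 1.25% DMSO, 16-20 h at 35° C. Growth read fluorometrically with resazurin (ex 540/em 590 nm); IC90 in μg/ml is the 90% growth-inhibitory concentration.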

[3] = Cytotoxicity MTT assay (HELAM); type: cell-based, Human; conditions: human, HelaM cells, read-out: HELAM (222.125) CC50
Method in brief: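 HelaM cells exposed 72 h at 37° C to serial dilutions, typically 25 to 0.8 μM, in 0.5% DMSO. MTT formazan dissolved in 2-propanol, absorbance at 540 nm minus 690 nm; CC50 is concentration halving viability.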

[4] = Thermodynamic solubility (pH solubility profiling); type: physicochemical; conditions: thermodynamic from solid
Experimental: The pH solubility profiling was carried out at ambient temperature for a period of 4 days. A saturation solubility study was carried out in order to determine maximum solubility in a particular buffer solution. The compound was added to respective buffer solution until saturation point is reached. This was followed by shaking the flask for 4 days at ambient temperature. After 4 days, the solutions were filtered and injected on UPLC and the concentration was determined using a generic HPLC method.

[5] = In vivo pharmacokinetic and oral bioavailability in mouse; parameters: species or system male Swiss mice; conditions: for half-life: read-out: Half life (t1/2) (converted)
Experimental: The in vivo pharmacokinetics and oral bioavailability of the compound of the examples were/are investigated in male Swiss mice (fed) following single intravenous (i.v.) bolus and oral (p.o.) administration. For the i.v. and p.o. solution formulations, the compound was/is dissolved in a 20% HP-β-CD solution. The pH of the formulations was/is around pH 4. All i.v. formulations were isotonic.

[6] = aqueous buffer, Buffer pH 4, ambient temperature
[7] = aqueous buffer, Buffer pH 7.4, ambient temperature
[8] = aqueous with cosolvent or surfactant or cyclodextrin, 10% HP-β-CD buffer pH 4, ambient temperature
[9] = aqueous with cosolvent or surfactant or cyclodextrin, 10% HP-β-CD buffer pH 7.4, ambient temperature
[10] = aqueous with cosolvent or surfactant or cyclodextrin, 20% HP-β-CD buffer pH 4, ambient temperature
[11] = aqueous with cosolvent or surfactant or cyclodextrin, 20% HP-β-CD buffer pH 7.4, ambient temperature
[12] = pH 2, aqueous with cosolvent or surfactant or cyclodextrin, 20% HP-β-CD 0.01N HCl, ambient temperature
[13] = pH 2, simulated gastric fluid, 0.01N HCl, ambient temperature
[14] = male, Swiss, plasma, iv, 2.5 mg/kg, 20% HP-β-cyclodextrin
[15] = male, Swiss, plasma, po, 5 mg/kg, 20% HP-β-cyclodextrin

Row | SMILES | IC50 [1] [nM] | IC90 [2] [µg/mL] | IC90 (S. aureus) [µg/mL] | CC50 at 72 h [3] [µg/mL] | melting point [°C] | also measured
1 | O=C1Nc2ncc(/C=C/C(=O)N3CC4C=C(c5nccs5)CC4C3)cc2CN2CCOCC12 (stereo not drawn) [Cpd. No. 74] | 992 | < 0.23 | < 0.23 | > 11.2 | > 260 | solubility thermodynamic at 4 days [4, 6]: 40 µg/mL (≈ 86.3 µM); solubility thermodynamic at 4 days [4, 7]: 30 µg/mL (≈ 64.7 µM); solubility thermodynamic at 4 days [4, 8]: > 1280 µg/mL; solubility thermodynamic at 4 days [4, 9]: > 1210 µg/mL; solubility thermodynamic at 4 days [4, 10]: > 2360 µg/mL; solubility thermodynamic at 4 days [4, 11]: > 1330 µg/mL; solubility thermodynamic at 4 days [4, 12]: > 2360 µg/mL; solubility thermodynamic at 4 days [4, 13]: 670 µg/mL (≈ 1450 µM)
2 | O=C(Nc1ccc(/C=C/C(=O)N2CC3C=C(c4ccncc4)CC3C2)cn1)c1cccnc1 (stereo not drawn) [compound 9] | – | 0.34 (≈ 0.777 µM) | 0.39 | > 11 | 196 | solubility thermodynamic at 4 days [4, 6]: 120 µg/mL (≈ 274 µM); solubility thermodynamic at 4 days [4, 7]: < 10 µg/mL; solubility thermodynamic at 4 days [4, 8]: 830 µg/mL (≈ 1900 µM); solubility thermodynamic at 4 days [4, 9]: > 1120 µg/mL; solubility thermodynamic at 4 days [4, 10]: > 5230 µg/mL; solubility thermodynamic at 4 days [4, 11]: > 4940 µg/mL; solubility thermodynamic at 4 days [4, 12]: > 4930 µg/mL; solubility thermodynamic at 4 days [4, 13]: > 1250 µg/mL
3 | O=C1COc2cc(/C=C/C(=O)N3CC4C=C(c5ccccc5)CC4C3)cnc2N1 (stereo not drawn) [compound 37] | ~1160 | < 0.19 | 0.25 | > 9.73 | > 260 | Vdz ([5]; i.v., 2.5 mg/kg, 20% HP-β-cyclodextrin): 1.5 L/kg; AUC(0-inf) [5, 14]: 7890 ng·h/mL; C0 [5, 14]: 3930 ng/mL; half-life [5, 14]: 3.33 h; clearance ([5]; male, Swiss, plasma, iv, 2.5 mg/kg, 20% HP-β-cyclodextrin, read-out: Plasma clearance Cl (converted)): 5.33 mL/min/kg; AUC(0-inf) [5, 15]: 15600 ng·h/mL; Cmax [5, 15]: 2330 ng/mL; Tmax [5, 15]: 1 h; half-life [5, 15]: 3.5 h; bioavailability ([5]; male, Swiss, plasma, po, p.o. 5 mg/kg vs i.v. 2.5 mg/kg): 98%
4 | O=C1CNC(=O)c2cc(/C=C/C(=O)N3CC4C=C(c5ccccc5)CC4C3)cnc2N1 (stereo not drawn) [compound 66] | 651 | 0.76 (≈ 1.83 µM) | 0.79 | > 10.4 | 226 | –
5 | O=C1Nc2ncc(/C=C/C(=O)N3CC4C=C(c5ccsc5)CC4C3)cc2CN2CCOCC12 (stereo not drawn) [compound 70] | 1450 | 0.17 (≈ 0.368 µM) | 0.2 | > 11.6 | > 250 | –
6 | CC(=O)N1CCN2Cc3cc(/C=C/C(=O)N4CC5C=C(c6cccs6)CC5C4)cnc3NC(=O)C2C1 (stereo not drawn) [compound 75] | 1290 | < 0.25 | < 0.25 | > 12.7 | 215 to 230 | –
7 | O=C1Nc2ncc(/C=C/C(=O)N3CC4C=C(c5ccccc5)CC4C3)cc2C(=O)N2CCOCC12 (stereo not drawn) [compound 76] | 1230 | 0.25 (≈ 0.531 µM) | 0.41 | > 11.8 | 278.12 | –
8 | O=C1Nc2ncc(/C=C/C(=O)N3CC4C=C(c5ccccc5)CC4C3)cc2CN2CCSCC12 (stereo not drawn) [compound 77] | 1180 | 0.26 (≈ 0.55 µM) | 0.59 | 1.2 (≈ 2.54 µM) | 214 | –
9 | O=C1Nc2ncc(/C=C/C(=O)N3CC4C=C(c5ccccc5)CC4C3)cc2CN2CCOCC12 (stereo not drawn) [compound 78] | 1070 | – | < 0.22 | > 11.5 | 242 | STA (361.159) IC90 ([2]; Staphylococcus aureus ATCC 29213, broth microdilution): 0.31 µg/mL
10 | O=C1Nc2ncc(/C=C/C(=O)N3CC4C=C(c5ccccc5)CC4C3)cc2CN2CCNCC12 (stereo not drawn) [compound 79] | 1320 | 0.36 (≈ 0.79 µM) | < 0.22 | > 11.4 | 191 to 216 | solubility thermodynamic at 4 days [4, 6]: 150 µg/mL (≈ 329 µM); solubility thermodynamic at 4 days [4, 7]: 10 µg/mL (≈ 22 µM); solubility thermodynamic at 4 days [4, 8]: > 5330 µg/mL; solubility thermodynamic at 4 days [4, 9]: > 5110 µg/mL; solubility thermodynamic at 4 days [4, 10]: > 4450 µg/mL; solubility thermodynamic at 4 days [4, 11]: > 4880 µg/mL; solubility thermodynamic at 4 days [4, 12]: > 4490 µg/mL; solubility thermodynamic at 4 days [4, 13]: > 1160 µg/mL
11 | O=C1Nc2ncc(/C=C/C(=O)N3CC4C=C(c5ccncc5)CC4C3)cc2CN2CCOCC12 (stereo not drawn) [compound 80] | 743 | 0.42 (≈ 0.918 µM) | 0.38 | > 11.5 | 212 | –
12 | CN1CCN2C(=O)c3cc(/C=C/C(=O)N4CC5C=C(c6ccccc6)CC5C4)cnc3NC(=O)C2C1 (stereo not drawn) [compound 82] | 993 | 0.45 (≈ 0.931 µM) | 0.43 | > 12.1 | > 270 | –
13 | CC(=O)N1CCN2C(=O)c3cc(/C=C/C(=O)N4CC5C=C(c6ccccc6)CC5C4)cnc3NC(=O)C2C1 (stereo not drawn) [compound 83] | 1230 | 0.48 (≈ 0.938 µM) | 0.47 | > 12.9 | 262 to 264 | –
14 | Cn1nccc1C1=CC2CN(C(=O)/C=C/c3cnc4c(c3)CN3CCOCC3C(=O)N4)CC2C1 (stereo not drawn) [compound 85] | 955 | 1.67 (≈ 3.63 µM) | 1.62 | > 11.6 | 226 | –
15 | O=C1CC2CCCCN2Cc2cc(/C=C/C(=O)N3C[C@@H]4CC(c5ccccc5)=C[C@@H]4C3)cnc2N1 (stereo partly drawn) [compound 90] | 832 | < 0.21 | < 0.21 | 4.4 (≈ 9.39 µM) | 214.9 to 232.7 | –
